Experiments:
barnyardgrass [1] = assay: Test A pre-/postemergence herbicide test; format: in vivo, Echinochloa crus-galli
Method in brief: (§1)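 Pre: seeded sandy loam, directed soil spray, compound in non-phytotoxic solvent + surfactant. Post: 1–2-leaf plants (2–10 cm), sprayed to runoff. Greenhouse ~10 d; visual injury vs untreated, 0–100 scale.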

large crabgrass [2] = assay: Test A pre-/postemergence herbicide test; format: in vivo, Digitaria sanguinalis
Method in brief: as §1

giant foxtail [3] = assay: Test A pre-/postemergence herbicide test; format: in vivo, Setaria faberi
Method in brief: as §1

morningglory [4] = assay: Test A pre-/postemergence herbicide test; format: in vivo, Ipomoea spp.
Method in brief: as §1

redroot pigweed = assay: Test A pre-/postemergence herbicide test; format: in vivo, Amaranthus retroflexus
Method in brief: as §1

velvetleaf [5] = assay: Test A pre-/postemergence herbicide test; format: in vivo, Abutilon theophrasti
Method in brief: as §1

barnyardgrass [6] = assay: Test B pre-/postemergence herbicide test; format: in vivo, Echinochloa crus-galli; conditions: for Plant response rating, Barnyardgrass: preemergence; for Barnyardgrass plant response rating: postemergence, visual rating, scale 0 (no effect) to 100 (complete control)
Method in brief: (§2)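 Test chemicals in a non-phytotoxic solvent mixture with surfactant were applied preemergence to seeded species and postemergence to plants 2-18 cm tall (1- to 4-leaf stage); rice and barnyardgrass were also tested in a flooded paddy at the 2-leaf stage. Visual rating versus controls after 13-15 days in greenhouse, scale 0 (no effect) to 100 (complete control).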

Surinam grass = assay: Test B pre-/postemergence herbicide test; format: in vivo, Urochloa decumbens; conditions: for Plant response rating, Surinam Grass: preemergence; for Surinam Grass plant response rating: postemergence, visual rating, scale 0 (no effect) to 100 (complete control)
Method in brief: (§3)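 Flooded paddy rice and barnyardgrass were treated at the 2-leaf stage; upland plantings received compound either on sown seed or on 1- to 4-leaf seedlings. All were kept 13–15 days in a greenhouse and scored visually, 0–100, relative to untreated plants.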

cocklebur = assay: Test B pre-/postemergence herbicide test; format: in vivo, Xanthium strumarium; conditions: for Plant response rating, Cocklebur: preemergence; for Cocklebur plant response rating: postemergence, visual rating, scale 0 (no effect) to 100 (complete control)
Method in brief: as §2

corn = assay: Test B pre-/postemergence herbicide test; format: in vivo, Zea mays; conditions: for Plant response rating, Corn: preemergence; for Corn plant response rating: postemergence, visual rating, scale 0 (no effect) to 100 (complete control)
Method in brief: as §3

large crabgrass [7] = assay: Test B pre-/postemergence herbicide test; format: in vivo, Digitaria sanguinalis; conditions: for Plant response rating, Crabgrass, Large: preemergence; for Crabgrass, Large plant response rating: postemergence, visual rating, scale 0 (no effect) to 100 (complete control)
Method in brief: as §3

giant foxtail [8] = assay: Test B pre-/postemergence herbicide test; format: in vivo, Setaria faberi; conditions: for Plant response rating, Foxtail, Giant: preemergence; for Foxtail, Giant plant response rating: postemergence, visual rating, scale 0 (no effect) to 100 (complete control)
Method in brief: as §3

lambsquarters = assay: Test B pre-/postemergence herbicide test; format: in vivo, Chenopodium album; conditions: for Plant response rating, Lambsquarters: preemergence; for Lambsquarters plant response rating: postemergence, visual rating, scale 0 (no effect) to 100 (complete control)
Method in brief: as §3

morningglory [9] = assay: Test B pre-/postemergence herbicide test; format: in vivo, Ipomoea coccinea; conditions: for Plant response rating, Morningglory: preemergence; for Morningglory plant response rating: postemergence, visual rating, scale 0 (no effect) to 100 (complete control)
Method in brief: as §2

pigweed = assay: Test B pre-/postemergence herbicide test; format: in vivo, Amaranthus retroflexus; conditions: for Plant response rating, Pigweed: preemergence; for Pigweed plant response rating: postemergence, visual rating, scale 0 (no effect) to 100 (complete control)
Method in brief: as §3

rice [10] = assay: Test B pre-/postemergence herbicide test; format: in vivo, Oryza sativa; conditions: preemergence
Method in brief: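 Evaluation is visual, comparing treated with control plants on a scale where 0 means no effect and 100 means full control. Treatments were preemergence, or postemergence on seedlings 2–18 cm tall, and held 13–15 days in the greenhouse.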

velvetleaf [11] = assay: Test B pre-/postemergence herbicide test; format: in vivo, Abutilon theophrasti; conditions: for Plant response rating, Velvetleaf: preemergence; for Velvetleaf plant response rating: postemergence, visual rating, scale 0 (no effect) to 100 (complete control)
Method in brief: as §3

blackgrass = assay: Test B postemergence herbicide test; format: in vivo, Alopecurus myosuroides; conditions: postemergence, visual rating, scale 0 (no effect) to 100 (complete control)
Method in brief: (§4)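 Paddy species grown to the 2-leaf stage under flooding; blackgrass sprayed postemergence at 2–18 cm (1- to 4-leaf stage). Plants kept in a greenhouse for 13 to 15 days, then visually rated against controls on 0 (no effect) to 100 (complete control).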

wheat = assay: Test B postemergence herbicide test; format: in vivo, Triticum aestivum; design: key to Wheat plant response rating: 0 = no effect, 100 = complete control; conditions: postemergence, 500 g ai/ha; visual rating, scale 0 (no effect) to 100 (complete control)
Method in brief: (§5)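 Read-out: visual comparison with controls, scored 0 to 100, where 100 means complete control and 0 no effect. Formulated chemicals were applied postemergence to plants 2–18 cm tall (1- to 4-leaf), or to flooded-paddy plants at the 2-leaf stage, then held 13 to 15 days under glass.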

wild oat = assay: Test B postemergence herbicide test; format: in vivo, Avena fatua; conditions: postemergence, visual rating, scale 0 (no effect) to 100 (complete control)
Method in brief: as §5

rice [12] = assay: Test B flooded paddy test; format: in vivo, Oryza sativa; conditions: 1000 g ai/ha, visual rating, scale 0 to 100 (0 no effect, 100 complete control), 13 to 15 days
Method in brief: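 After treating 2-leaf paddy plants or 2–18 cm postemergence plants (1 to 4 leaves) with formulated chemical, researchers kept them in a greenhouse for 13–15 days. Effects were judged visually versus controls: 0 indicates none, 100 total control.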

[13] = tested on: small flower umbrella sedge; assay: Test B flooded paddy test; format: in vivo, Cyperus difformis; conditions: 1000 g ai/ha, visual rating, scale 0 to 100 (0 no effect, 100 complete control), 13 to 15 days
Method in brief: as §4

ducksalad = assay: Test B flooded paddy test; format: in vivo, Heteranthera limosa; conditions: 1000 g ai/ha, visual rating, scale 0 to 100 (0 no effect, 100 complete control), 13 to 15 days
Method in brief: as §4

barnyardgrass [14] = assay: Test B flooded paddy test; format: in vivo, Echinochloa crus-galli; conditions: 1000 g ai/ha, visual rating, scale 0 to 100 (0 no effect, 100 complete control), 13 to 15 days
Method in brief: as §4

[15] = Postemergence, 500 g ai/ha, 0 to 100 scale, 0 no effect, 100 complete control
[16] = Postemergence, 2000 g ai/ha, 0 to 100 scale, 0 no effect, 100 complete control
[17] = Preemergence, 500 g ai/ha, visual rating, 0 to 100 scale (0 no effect, 100 complete control)
[18] = Preemergence, 2000 g ai/ha, visual rating, 0 to 100 scale (0 no effect, 100 complete control)
[19] = preemergence, 500 g ai/ha, visual injury, 0 to 100 scale (0 no effect, 100 complete control)
[20] = 500 g ai/ha, visual rating 0-100, 0 no effect, 100 complete control
[21] = 125 g ai/ha, 0 to 100 scale, 0 is no effect, 100 is complete control

CCn1nc(C(C)(C)C)cc1C(=O)Nc1cc(C(=O)NC(C)(C)C)ccn1 [Compound 154]
Barnyardgrass plant response rating (barnyardgrass [1]; [15]): 50 | Plant response rating, Barnyardgrass (barnyardgrass [1]; [16]): 90 | Barnyardgrass plant response rating (barnyardgrass [1]; [17]): 30 | Barnyardgrass plant response rating (barnyardgrass [1]; [18]): 95 | Crabgrass, Large plant response rating (large crabgrass [2]; [15]): 20 | Plant response rating, Crabgrass, Large (large crabgrass [2]; [16]): 30 | Crabgrass, Large plant response rating (large crabgrass [2]; [17]): 25 | Crabgrass, Large plant response rating (large crabgrass [2]; [18]): 85 | Foxtail, Giant plant response rating (giant foxtail [3]; [15]): 20 | Plant response rating, Foxtail, Giant (giant foxtail [3]; [16]): 20 | Foxtail, Giant plant response rating (giant foxtail [3]; [17]): 20 | Foxtail, Giant plant response rating (giant foxtail [3]; [18]): 70 | Morningglory plant response rating (morningglory [4]; [15]): 20 | Plant response rating, Morningglory (morningglory [4]; [16]): 40 | Morningglory plant response rating (morningglory [4]; [17]): 10 | Morningglory plant response rating (morningglory [4]; [18]): 30 | Pigweed plant response rating (redroot pigweed; [15]): 90 | Plant response rating, Pigweed (redroot pigweed; [16]): 100 | Pigweed plant response rating (redroot pigweed; [18]): 100 | Pigweed plant response rating (redroot pigweed; [19]): 85 | Velvetleaf plant response rating (velvetleaf [5]; [15]): 10 | Plant response rating, Velvetleaf (velvetleaf [5]; [16]): 30 | Velvetleaf plant response rating (velvetleaf [5]; [18]): 60 | Velvetleaf plant response rating (velvetleaf [5]; [19]): 15 | Plant response rating, Barnyardgrass (barnyardgrass [6]; [20]): 80 | Barnyardgrass plant response rating (barnyardgrass [6]; 125 g ai/ha): 20 | Barnyardgrass plant response rating (barnyardgrass [6]; 500 g ai/ha): 50 | Plant response rating, Barnyardgrass (barnyardgrass [6]; [21]): 10 | Plant response rating, Surinam Grass (Surinam grass; [20]): 10 | Surinam Grass plant response rating (Surinam grass; 125 g ai/ha): 30 | Surinam Grass plant response rating (Surinam grass; 500 g ai/ha): 60 | Plant response rating, Surinam Grass (Surinam grass; [21]): 0 | Plant response rating, Cocklebur (cocklebur; [20]): 10 | Cocklebur plant response rating (cocklebur; 125 g ai/ha): 60 | Cocklebur plant response rating (cocklebur; 500 g ai/ha): 70 | Plant response rating, Cocklebur (cocklebur; [21]): 0 | Plant response rating, Corn (corn; [20]): 0 | Corn plant response rating (corn; 125 g ai/ha): 10 | Corn plant response rating (corn; 500 g ai/ha): 20 | Plant response rating, Corn (corn; [21]): 0 | Plant response rating, Crabgrass, Large (large crabgrass [7]; [20]): 80 | Crabgrass, Large plant response rating (large crabgrass [7]; 125 g ai/ha): 10 | Crabgrass, Large plant response rating (large crabgrass [7]; 500 g ai/ha): 20 | Plant response rating, Crabgrass, Large (large crabgrass [7]; [21]): 50 | Plant response rating, Foxtail, Giant (giant foxtail [8]; [20]): 30 | Foxtail, Giant plant response rating (giant foxtail [8]; 125 g ai/ha): 10 | Foxtail, Giant plant response rating (giant foxtail [8]; 500 g ai/ha): 20 | Plant response rating, Foxtail, Giant (giant foxtail [8]; [21]): 0 | Plant response rating, Lambsquarters (lambsquarters; [20]): 90 | Lambsquarters plant response rating (lambsquarters; 125 g ai/ha): 80 | Lambsquarters plant response rating (lambsquarters; 500 g ai/ha): 90 | Plant response rating, Lambsquarters (lambsquarters; [21]): 70 | Plant response rating, Morningglory (morningglory [9]; [20]): 0 | Morningglory plant response rating (morningglory [9]; 125 g ai/ha): 60 | Morningglory plant response rating (morningglory [9]; 500 g ai/ha): 70 | Plant response rating, Morningglory (morningglory [9]; [21]): 0 | Plant response rating, Pigweed (pigweed; [20]): 100 | Pigweed plant response rating (pigweed; 125 g ai/ha): 20 | Pigweed plant response rating (pigweed; 500 g ai/ha): 80 | Plant response rating, Pigweed (pigweed; [21]): 90 | Plant response rating, Rice (rice [10]; [20]): 0 | Plant response rating, Rice (rice [10]; [21]): 0 | Plant response rating, Velvetleaf (velvetleaf [11]; [20]): 70 | Velvetleaf plant response rating (velvetleaf [11]; 125 g ai/ha): 20 | Velvetleaf plant response rating (velvetleaf [11]; 500 g ai/ha): 60 | Plant response rating, Velvetleaf (velvetleaf [11]; [21]): 70 | Blackgrass plant response rating (blackgrass; 125 g ai/ha): 10 | Blackgrass plant response rating (blackgrass; 500 g ai/ha): 10 | Wheat plant response rating (wheat): 10 | Oat, Wild plant response rating (wild oat; 125 g ai/ha): 10 | Oat, Wild plant response rating (wild oat; 500 g ai/ha): 30 | Rice plant response rating (rice [12]): 20 | Sedge, Umbrella plant response rating [13]: 20 | Ducksalad plant response rating (ducksalad): 80 | Barnyardgrass plant response rating (barnyardgrass [14]): 50

From US20060069132A1, “Azolecarboxamide herbicides” (priority 2004, published 2006)
